# Measured values as given in US9981954B2, “2-(pyrazin-2-ylcarbonylaminomethyl) benzimidazolium compounds as epithelial sodium channel inhibitors” (Boehringer Ingelheim International GmbH, priority 2015, dated 2018).
# Key:
# [1] = Permeability in CALU-3 cells; format: in vitro ADME; conditions: human, CALU-3 monolayers, pH 7.4, 37° C., 10 μM compound
# Procedure: Permeability in CALU-3 Cells:
# Permeability measurements across polarized, confluent CALU-3 cell monolayers grown on permeable filter supports are used to provide information on the potential of a compound to pass the lung epithelium.
# CALU-3 cells (1-2×10^5 cells/l cm^2 area) are seeded on filter inserts (Costar transwell polycarbonate filters, 0.4 μm pore size) and cultured (for 10-12 days DMEM) until tight monolayers are formed. Compounds of interest are dissolved in appropriate solvent (DMSO, 10 mM stock solution). […] The transport solution (TL) is applied to the apical or basolateral donor side for measuring A-B or B-A permeability (3 filter replicates), respectively. The receiver side contains the same buffer as the donor side. After 30 min of accommodation, samples are collected at the start t0=0 min and at the end of the experiment tn=90 min from the donor and at 0, 30, 60, and 90 min also from the receiver chamber. Volume removed is […] by HTP-4 buffer. The compound concentration in the samples is measured by HPLC-MS/MS or scintillation counting. The permeability coefficient (Papp) and efflux ratio are calculated according to: Papp [cm/s]=(concentration receiver [nM]*volume receiver [mL]/time interval [sec])*(1/filter area)*(1/donor concentration [nM]).
# [2] = biological target: T1, ENaC (Epithelial Sodium Channel), Mouse kidney M-1 cells (Mus musculus, UniProt Q61180+Q9WU38+Q9WU39); test: Ussing Chamber assay: inhibition of amiloride sensitive short circuit current in M-1 cells; format: cell-based; conditions: apical application, 37° C.
# T1 construct: Mouse kidney M-1 cells were cultivated in DMEM containing 5% FCS and 5 μM dexamethasone; endogenous in cells; host or cells: Mouse kidney M-1 cells (polarised on transwell filters, dexamethasone-treated)
# T1 sequence (Q61180 1-699): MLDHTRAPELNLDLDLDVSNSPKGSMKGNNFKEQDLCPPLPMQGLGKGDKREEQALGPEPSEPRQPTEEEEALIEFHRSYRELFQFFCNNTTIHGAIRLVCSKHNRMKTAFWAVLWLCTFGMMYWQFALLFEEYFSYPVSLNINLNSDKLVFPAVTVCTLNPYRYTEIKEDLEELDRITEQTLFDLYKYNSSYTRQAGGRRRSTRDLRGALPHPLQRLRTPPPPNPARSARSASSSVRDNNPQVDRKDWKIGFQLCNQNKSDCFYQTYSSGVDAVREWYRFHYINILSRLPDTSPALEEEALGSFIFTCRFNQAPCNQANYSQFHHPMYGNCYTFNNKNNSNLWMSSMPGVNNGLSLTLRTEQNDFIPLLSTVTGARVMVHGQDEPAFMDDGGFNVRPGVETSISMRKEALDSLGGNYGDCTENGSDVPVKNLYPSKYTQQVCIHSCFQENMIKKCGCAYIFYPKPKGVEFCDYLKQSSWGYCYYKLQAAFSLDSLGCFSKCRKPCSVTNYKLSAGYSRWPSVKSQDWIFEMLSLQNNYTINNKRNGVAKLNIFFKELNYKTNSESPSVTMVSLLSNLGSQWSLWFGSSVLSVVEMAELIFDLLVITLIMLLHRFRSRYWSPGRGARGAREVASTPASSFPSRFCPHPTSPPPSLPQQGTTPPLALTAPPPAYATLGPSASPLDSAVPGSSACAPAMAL
# T1 sequence (Q9WU38 1-638): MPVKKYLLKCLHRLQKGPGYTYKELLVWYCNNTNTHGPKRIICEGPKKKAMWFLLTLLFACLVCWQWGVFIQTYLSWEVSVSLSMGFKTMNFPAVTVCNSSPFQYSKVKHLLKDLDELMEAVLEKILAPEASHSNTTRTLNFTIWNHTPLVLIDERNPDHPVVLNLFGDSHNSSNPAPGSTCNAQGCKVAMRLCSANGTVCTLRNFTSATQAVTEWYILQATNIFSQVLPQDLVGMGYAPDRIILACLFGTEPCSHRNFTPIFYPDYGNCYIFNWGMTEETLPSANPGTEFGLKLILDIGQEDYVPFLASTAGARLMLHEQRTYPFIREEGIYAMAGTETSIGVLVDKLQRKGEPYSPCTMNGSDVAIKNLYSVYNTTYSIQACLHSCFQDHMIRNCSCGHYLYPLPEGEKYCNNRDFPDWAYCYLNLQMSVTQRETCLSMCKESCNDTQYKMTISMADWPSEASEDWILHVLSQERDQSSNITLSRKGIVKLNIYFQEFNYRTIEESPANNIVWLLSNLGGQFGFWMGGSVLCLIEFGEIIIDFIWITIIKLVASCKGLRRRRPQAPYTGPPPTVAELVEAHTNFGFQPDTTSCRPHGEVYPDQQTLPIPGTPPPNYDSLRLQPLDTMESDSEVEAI
# T1 sequence (Q9WU39 1-655): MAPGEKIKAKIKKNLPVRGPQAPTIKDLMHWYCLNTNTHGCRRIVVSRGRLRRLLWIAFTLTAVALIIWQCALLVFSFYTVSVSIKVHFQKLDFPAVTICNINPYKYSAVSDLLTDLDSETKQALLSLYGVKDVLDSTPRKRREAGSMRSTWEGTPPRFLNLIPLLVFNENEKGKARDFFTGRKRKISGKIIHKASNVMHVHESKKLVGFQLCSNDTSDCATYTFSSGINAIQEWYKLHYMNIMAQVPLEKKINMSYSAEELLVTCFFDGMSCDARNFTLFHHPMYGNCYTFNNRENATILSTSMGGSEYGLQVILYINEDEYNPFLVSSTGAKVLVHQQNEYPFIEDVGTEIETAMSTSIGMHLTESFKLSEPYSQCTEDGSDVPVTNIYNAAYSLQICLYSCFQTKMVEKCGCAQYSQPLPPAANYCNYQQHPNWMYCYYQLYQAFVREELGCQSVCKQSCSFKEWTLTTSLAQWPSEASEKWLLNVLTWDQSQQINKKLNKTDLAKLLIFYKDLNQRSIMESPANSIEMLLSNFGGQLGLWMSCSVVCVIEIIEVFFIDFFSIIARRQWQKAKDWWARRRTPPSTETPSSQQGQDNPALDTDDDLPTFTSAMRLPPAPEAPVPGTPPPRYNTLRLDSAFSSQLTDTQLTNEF
# Procedure: Ussing Chamber: Mouse kidney M-1 cells were cultivated in DMEM containing 5% FCS and 5 μM dexamethasone for 10 to 12 days on polyester transwell filters. Filters were inserted into a teflon-coated well-plate which fit into the ussing chamber system. Prior to measurement the medium of M-1 cells was replaced with Caco-2 transport buffer (Invitrogen, Germany). During measurements, the Ussing chamber temperature was kept at 37° C. Short circuit currents (I_sc) were measured in the voltage-clamp mode with the software package Lab View for data acquisition and analysis. The transepithelial electrical resistance (TEER) was determined by the application of voltage steps of ±5 mV every 5 sec. Compounds were administered at a final concentration of 3 μM or at increasing concentrations (1-3-10 μM) to the apical solution. At the end of each experiment the amiloride sensitive I_SC was measured by adding 3 μM amiloride to the apical compartment. Results are expressed as inhibition in percent of the amiloride effect or as IC50.
structure (smiles),measurement,setting,value
CCn1c(CNC(=O)c2nc(Cl)c(N)nc2N)[n+](CC(=O)c2ccc(OC)c(OC)c2)c2ccc(OC)cc21.O=C([O-])C(F)(F)F [Example 8.01],"Papp A→B at 90 min, 10 μM",[1]; apical-to-basal,3 nm/s
same,"Papp B→A at 90 min, 10 μM",[1]; basal-to-apical,2 nm/s
same,IC50,[2],0.013 µM
